Test results from patent US7498406B2, “Substantially cell membrane impermeable compound and use thereof” (priority 1999, dated 2009).

Columns and labels:
BxPC-3 tumours = test: Tumour growth in mice, subcutaneous administration; type: in vivo, SCID mice; conditions: for inhibition of the rate of BxPC-3 tumour growth: subcutaneous
Experimental: FIG. 23. Inhibition of human pancreatic tumour growth by GSAO. BxPC-3 tumours were established in the proximal midline of female 7 to 9 week old SCID mice. When the tumours were ˜0.1 cm^3 in volume the mice were randomised into two groups and treated with either GSAA or GSAO at doses of 2 (part A) or 10 (part B) mg per kg per day in 0.2 mL of PBS containing 100 mM glycine. The compounds were administered subcutaneously at a site distant from the tumour. Tumour volume and animal weight was measured every 3 days. The GSAO/GSAA tumour volume ratio at day 26 of treatment with 2 mg per kg per day was 0.34 (part A). The GSAO/GSAA tumour volume ratio at day 31 of treatment with 10 mg per kg per day was 0.09 (part B). There were 4 mice per group in part A and 4 mice treated with GSAA and 5 with GSAO in part B. The mice and excised tumours from the experiment described in Part B at day 31 of treatment are shown in Part C. The data points and errors represent the mean and SE of the tumour volumes.
Female 7 to 9 week old SCID or C57Bl6/J mice were used (Massachusetts General Hospital, Boston, Mass.). Mice were held in groups of 3 to 5 at a 12 hour day and night cycle and were fed with animal chow and water ad libidum. SCID mice were anaesthetised by inhalation of isoflurane, the dorsal skin shaved and cleaned with ethanol, and a suspension of 2.5×10^6 BxPC-3 or HT1080 cells in 0.2 mL of DMEM was injected subcutaneously in the proximal midline. C57Bl6/J mice with Lewis lung carcinomas of 0.6-1.2 cm^3 volumes were sacrificed and the skin overlying the tumour was cleaned with betadine and ethanol. Tumour tissue was excised under aseptic conditions and a suspension of tumour cells in 0.9% saline was made by passage of tumour tissue through a sieve and a series of sequentially smaller 22- to 30-gauge hypodermic needles. C57Bl6/J mice were anaesthetised and prepared as for SCID mice and a suspension of Lewis lung carcinoma cells in 0.2 mL of saline was injected subcutaneously in the proximal midline. Tumours were allowed to establish and grow to a size of ˜0.1 cm^3 after which they were randomised into two groups. The tumours were measured in two diameters and tumour volume was calculated using the relationship, tumour volume=a×b^2×0.52, where a is the longest and b the shortest diameters in cm. Animals were treated with either GSAA or GSAO at doses of 2 or 10 mg per kg per day in 0.2 mL of PBS containing 100 mM glycine. The compounds were administered subcutaneously at a site distant from the tumour. Tumour volume and animal weight was measured every 3 days. The tumours were excised and weighed when the animals were sacrificed.

HDMVE cells = test: Endothelial cell tube formation in Matrigel; type: cell-based, human; conditions: 0.1, 1 or 100 μM; 18 hours
Experimental: FIG. 21. GSAO perturbs endothelial cell tube formation in Matrigel. Matrigel (100 μl) was added to wells of 96 well plates and allowed to gel for 60 minutes at 37° C. HDMVE cells (10,000 cells per well) in complete media containing 0.1, 1 or 100 μM GSAA or GSAO were seeded onto the Matrigel and the plates were incubated in 5% CO2, 37° C. The phase contrast micrographs were taken after 18 hours incubation.
Endothelial cells arrange into tube-like structures when seeded onto three-dimensional matrices such as the extracellular matrix preparation, Matrigel, or collagen. The tubes can be considered to represent immature blood vessels. Matrigel (100 μl, Becton Dickinson, Bedford, Mass.) was added to wells of 96 well plates (Gibco BRL, Gaithersburg, Md.) and allowed to gel for 60 minutes at 37° C. Human dermal microvascular endothelial (HDMVE) cells were harvested and cultured as described by Stathakis et al (1997), HDMVE cells (8,000 cells per well) in 150 μl of M199 (Gibco BRL, Gaithersburg, Md.) media containing 30% pooled human serum, 50 μg per mL Heparin (Sigma, St. Louis, Mo.), 100 μg per mL Endothelial Cell Growth Supplement (Gibco BRL, Gaithersburg, Md.) and 0.1, 1 or 100 μM GSAA or GSAO were seeded onto the Matrigel and the plates were incubated for 18 hours in 5% CO2, 37° C. Phase contrast micrographs of the wells were collected.

[1] = Interaction of GSAO with synthetic, peptide and protein dithiols; type: binding; conditions: read-out: dissociation constants, range over the dithiols
Experimental: FIG. 12. Interaction of GSAO with synthetic, peptide and protein dithiols. DMP (A) (15 μM), 6,8-thioctic acid (B) ([…]), dithiothreitol (C) (8.5 μM), TrpCysGlyProCysLys (D) (4.6 μM), TrpCysGlyHisCysLys (E) (5.5 μM) or thioredoxin (F) (4.1 μM corresponding to 20.6 μM thiols) was incubated with GSAO (0-56 μM) for 10 minutes. DTNB (950 μM) was then added and the reactions incubated for a further 10 minutes. The concentration of thiol in the reactions was determined from the absorbance of the TNB dianion at 412 nm. The solid lines represent the best non-linear least squares fit of the data to Equation 1 (A to E) or Equation 2 (F) and have been drawn using the parameter estimates in Table 1. The dotted line in part A represents a simulated titration assuming an infinite affinity of GSAO for the dithiol. GSAO bound to both synthetic, peptide and protein dithiols with dissociation constants in the range 130 nM to 1.4 μM.
Binding of GSAO to dithiols was measured from loss of thiols using the DTNB assay described above. The dissociation constant, Kd, for GSAO binding to dithiols was determined by incubating increasing concentrations of GSAO, I, with a fixed dithiol concentration, [S]T, and measuring the remaining dithiol using DTNB. Note that the concentration of dithiol equals half the TNB concentration. […]

| SMILES | inhibition of the rate of BxPC-3 tumour growth (BxPC-3 tumours; 2 mg per kg per day) | inhibition of the rate of BxPC-3 tumour growth (BxPC-3 tumours; 10 mg per kg per day) [%] | effect on tube formation (HDMVE cells) | GSAO/GSAA tumour volume ratio (BxPC-3 tumours; day 26 of treatment, 2 mg per kg per day) | GSAO/GSAA tumour volume ratio (BxPC-3 tumours; day 31 of treatment, 10 mg per kg per day) | Kd [1] [nM] |
| --- | --- | --- | --- | --- | --- | --- |
| N[C@@H](CCC(=O)N[C@@H](CSCC(=O)Nc1ccc([As](=O)(O)O)cc1)C(=O)NCC(=O)O)C(=O)O [GSAA, 4-(N-(S-glutathionylacetyl)amino)phenylarsonic acid, reference compound] | no effect | < 20 | no apparent effect on tube formation |  |  |  |
| NC(CCC(=O)NC(CSCC(=O)Nc1ccc([As]=O)cc1)C(=O)NCC(=O)O)C(=O)O (stereo not drawn) [GSAO, 4-(N-(S-glutathionylacetyl)amino)-phenylarsenoxide] | ~70% | > 90 | Effects were apparent at 0.1 μM concentration and marked at 100 μM | 0.34 | 0.09 | 130 to 1400 |
